According to article doi:10.1101/2023.10.24.563163v2, “Targeting cancer with small molecule pan-KRAS degraders” (biorxiv, 2024):

Experiments:
[1] = target: T1, VCB:KRAS ternary complex partners (Homo sapiens, UniProt P01116+P40337, P01116:C118S/P01116:G12D); test: biochemical; parameters: FP displacement of FAM-HIF-1alpha peptide from VCB, with or without saturating KRAS G12D; conditions: FP, saturating KRAS G12D
T1 construct: VCB (Avi-tagged, biotinylated for SPR) plus KRAS 1-169 C118S GDP; E. coli, His6 tags removed; with Elongin-C; Elongin-B
T1 sequence (Q15370 1-104): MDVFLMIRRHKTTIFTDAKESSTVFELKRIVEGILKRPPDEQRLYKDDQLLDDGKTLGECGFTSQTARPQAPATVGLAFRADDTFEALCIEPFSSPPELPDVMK
T1 sequence (P01116 1-169 G12D/C118S): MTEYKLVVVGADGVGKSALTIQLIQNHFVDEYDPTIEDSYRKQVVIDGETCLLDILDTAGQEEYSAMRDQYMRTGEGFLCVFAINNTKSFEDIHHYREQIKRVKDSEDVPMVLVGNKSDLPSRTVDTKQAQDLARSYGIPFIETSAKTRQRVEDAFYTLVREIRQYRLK
T1 sequence (Q15369 17-112, further chain): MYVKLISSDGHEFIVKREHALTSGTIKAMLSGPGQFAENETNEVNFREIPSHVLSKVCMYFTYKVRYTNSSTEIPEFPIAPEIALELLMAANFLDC
T1 sequence (P40337 54-213): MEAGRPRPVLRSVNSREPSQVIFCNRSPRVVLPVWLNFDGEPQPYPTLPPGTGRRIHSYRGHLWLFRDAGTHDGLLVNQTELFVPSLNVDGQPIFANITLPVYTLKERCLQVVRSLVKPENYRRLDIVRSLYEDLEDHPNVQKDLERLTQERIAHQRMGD

[2] = target: T2, KRAS^WT (Homo sapiens, UniProt P01116); parameters: KRAS degradation by capillary electrophoresis immunodetection; conditions: read-out: DC50 24 h A375
T2 construct: endogenous wild type
T2 sequence (P01116 whole entry): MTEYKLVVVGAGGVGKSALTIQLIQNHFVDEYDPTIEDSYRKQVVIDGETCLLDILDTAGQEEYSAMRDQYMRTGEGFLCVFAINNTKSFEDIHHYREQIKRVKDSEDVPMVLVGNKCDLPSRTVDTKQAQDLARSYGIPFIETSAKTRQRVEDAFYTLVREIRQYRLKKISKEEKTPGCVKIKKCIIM
Procedure: (§1) Protein Detection by Capillary Electrophoresis Cells (50 000) were seeded the day before treatment into 96-well clear-flat bottom plates and incubated overnight (37 °C, humidified tissue culture incubator, 5% CO2). Compounds were added from DMSO stock solution using a digital dispenser and cells are incubated at 37 °C as specified (24 hours for KRAS degradation, 6 hours for determination of pERK levels). At the end of the incubation, medium was removed, cells washed with ice cold PBS, PBS removed and 50 µL lysis buffer (Meso Scale Discovery #R60TX-2) supplemented with 1:100 protease inhibitor solution, 1:100 phosphatase inhibitor I, 1:100 phosphatase inhibitor II (Meso Scale Discovery #R70AA-1), 0.5 µL/mL Benzonase (Novagen #70664-3) and 10 mM dithiothreitol added to each well. Plates with lysis buffer were immediately transferred to -80 °C freezer for at least 2 hours and then thawed on ice. Lysates were transferred to a 96 well V-bottom plate and insoluble debris was pelleted by centrifugation for 20 min. at 4 000 rpm. 40 µL of the supernatant were transferred to a fresh Eppendorf PCR plate. Analysis of protein levels was conducted using the Wes System, ProteinSimple (https://www.bio-techne.com/) as specified by the manufacturer. […]

[3] = target: KRAS^G12D (Homo sapiens, UniProt P01116, G12D); parameters: endogenous or HiBiT-tagged in cells; KRAS degradation by capillary electrophoresis (Wes) immunodetection; conditions: GP2d; 6 h; degrader
Chain of KRAS^G12D (P01116 whole entry G12D): as the sequence (P01116 whole entry) above, with G12D counted along it
Procedure: as §1

[4] = target: KRAS^G12C (Homo sapiens, UniProt P01116, G12C); parameters: endogenous in NCI-H358; KRAS degradation by capillary electrophoresis (Wes) immunodetection; conditions: NCI-H358; 6 h; degrader
Chain of KRAS^G12C (P01116 whole entry G12C): as the sequence (P01116 whole entry) above, with G12C counted along it
Procedure: Protein Detection by Capillary Electrophoresis Cells (50 000) were seeded the day before treatment into 96-well clear-flat bottom plates and incubated overnight (37 °C, humidified tissue culture incubator, 5% CO2). […] At the end of the incubation, medium was removed, cells washed with ice cold PBS, PBS removed and 50 µL lysis buffer (Meso Scale Discovery #R60TX-2) supplemented with 1:100 protease inhibitor solution, 1:100 phosphatase inhibitor I, 1:100 phosphatase inhibitor II (Meso Scale Discovery #R70AA-1), 0.5 µL/mL Benzonase (Novagen #70664-3) and 10 mM dithiothreitol added to each well. Plates with lysis buffer were immediately transferred to -80 °C freezer for at least 2 hours and then thawed on ice. Lysates were transferred to a 96 well V-bottom plate and insoluble debris was pelleted by centrifugation for 20 min. at 4 000 rpm. 40 µL of the supernatant were transferred to a fresh Eppendorf PCR plate. Analysis of protein levels was conducted using the Wes System, ProteinSimple (https://www.bio-techne.com/) as specified by the manufacturer. Briefly, Wes Master Mix (12-230 kDa WES Separation Module, 8 × 25 capillary cartridges, ProteinSimple #SM-W004) and molecular weight markers were prepared as specified in the manufacturer’s recommendations. To detect primary antibodies, anti-rabbit (Protein Simple #DM-001) or anti-mouse (Protein Simple #DM-002) detection modules were used. […]

[5] = tested on: GP2d; test: cells; parameters: pERK levels by capillary electrophoresis; conditions: GP2d, 6 h
[6] = target: KRAS^G12V (Homo sapiens, UniProt P01116, G12V); parameters: endogenous in SW620; KRAS degradation by capillary electrophoresis (Wes) immunodetection; conditions: SW620; 6 h; degrader
Chain of KRAS^G12V (P01116 whole entry G12V): as the sequence (P01116 whole entry) above, with G12V counted along it
Procedure: as §1

Compound | Kd [1] [nM] | DC50 [2] [nM] | DC50 [3] [nM] | DC50 [4] [nM] | IC50 [5] [nM] | DC50 [6] [nM]
Cc1ncsc1-c1ccc(CNC(=O)[C@@H]2C[C@@H](O)CN2C(=O)[C@@H](NC(=O)COCCCN2CCCN(c3nccc(-c4noc([C@@]5(C)CCCc6sc(N)c(C#N)c65)n4)n3)[C@@H](C)C2)C(C)(C)C)cc1 [compound 2] | 15 ± 2 | – | – | – | – | –
Cc1ncsc1-c1ccc(CNC(=O)[C@@H]2C[C@@H](O)CN2C(=O)[C@@H](NC(=O)CCCCCN2CCCN(c3nccc(-c4noc([C@@]5(C)CCCc6sc(N)c(C#N)c65)n4)n3)[C@@H](C)C2)C(C)(C)C)cc1 [compound 3] | 20 ± 3 | 455 | 53.4 | 159 | 772 | 159
Cc1ncsc1-c1ccc(CNC(=O)[C@@H]2C[C@@H](O)CN2C(=O)[C@@H](c2cc(OCCCCN3CCCN(c4nccc(-c5noc([C@@]6(C)CCCc7sc(N)c(C#N)c76)n5)n4)[C@@H](C)C3)no2)C(C)C)cc1 [compound 4] | – | 33.4 | 7.3 | 19.6 | 3.1 | 24
